In patent US12478624B2, “Heterocyclic derivatives, pharmaceutical compositions and their use in the treatment or amelioration of cancer” (Tolremo Therapeutics AG, priority 2019, dated 2025) one finds EC50 data, which are given here for 16 compounds.

Assay [1] concerns A375 cells. Kind of assay: Assay 1: A375 cells treated with S1152, S1008 and compound, immunofluorescence (sc-365823) signal. The following applies: 1 μM S1152 + 0.5 μM S1008, one day. Type of assay: cell-based. In outline:
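A375 cells treated one day with 1 μM S1152, 0.5 μM S1008 and compound dose ranges in DMEM/10% FCS, then fixed, permeabilised and immunostained. Green signal normalised to nuclear counterstain (ethidium-type or DAPI), log ratio fitted by four-parameter regression for EC50.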

Assay [2] relates to OPM-2. The assay is described as follows: Assay 2: multiple myeloma cellular efficacy, PrestoBlue cell proliferation/survival. Type of assay: cell-based. The following applies: Homo sapiens, 96 h, OPM-2 cells, 4 days. In outline:
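Cells seeded at 10000/well and exposed to a compound dose range or vehicle for 4 days, then stained with PrestoBlue for 2 h at 37 °C. Fluorescence was background-subtracted and normalized to vehicle; EC50 came from a four-parameter variable-slope fit against log concentration.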

For assay [3], the target named is T1, CBP Bromodomain (Homo sapiens, UniProt Q92793).
T1 construct: purchased Cayman chemicals 600850
Kind of assay: Assay 3: CBP bromodomain binding assay (TR-FRET). Here is the method: Assay 3 CBP Bromodomain Binding Assay (TR-FRET)
Compounds solutions of 10 mM in DMSO were pre-diluted in DSMO to 25× stock solutions in DMSO. These were then diluted down to 4× in assay buffer. A dilution series in assay buffer was performed keeping the DMSO concentration stable. 5 μl compound in assay buffer was transferred into the assay plate (provided by assay kit) and the TR-FRET assay Cayman chemicals; 600850) was performed using the manufactor's instructions. After 1 hour incubation at room temperature in the darks, assay plates were read in a Tecan M1000 plate reader or a Tecan Spaks reader using the TR-FRET mode (top read; excitation 340 nm bandwidth […]; emission 620 nm bandwidth […]; gain optimal determined for the first well, number of flashes: 5; flash frequency 100 Hz; integration time: 500 μs, lag time: 100 μs, room temperature). The TR-FRET ratio was calculated by deviding 670 nm emission by 620 nm emission. Values were log transformed and non-linear regression with variable slope (4 parameters) was used to fit values to a dose-response curve to evaluate EC50 values.
A general note: In TR-FRET formats the signal depends on donor and acceptor labels being close together.

T1 sequence (Q92793 1085-1192 limits assumed): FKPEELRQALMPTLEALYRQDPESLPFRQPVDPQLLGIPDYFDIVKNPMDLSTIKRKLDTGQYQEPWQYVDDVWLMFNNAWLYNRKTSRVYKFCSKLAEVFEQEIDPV

Consider `CC(=O)N1C[C@H](c2nc(Nc3cccc4nn(C)cc34)cc(-c3cccnc3)n2)CC[C@@H]1C` [Compound 00045, 1-((2S,5R)-2-methyl-5-(4-((2-methyl-2H-indazol-4-yl)amino)-6-(pyridin-3-yl)pyrimidin-2-yl)piperidin-1-yl)ethan-1-one], for which the EC50 (as a rule, the concentration at which the effect is half-maximal) in assay [1] was less than 200 nM; in assay [2], 200 to 1000 nM; in assay [3] it was less than 200 nM.
Take `CC(=O)N1C[C@H](c2nc(Nc3cccc(-c4cn(C)nn4)c3)cc(-c3cncc4c3ccn4C)n2)CC[C@@H]1C` [Compound 00086, 1-((2S,5R)-2-methyl-5-(4-((3-(1-methyl-1H-1,2,3-triazol-4-yl)phenyl)amino)-6-(1-methyl-1H-pyrrolo[2,3-c]pyridin-4-yl)pyrimidin-2-yl)piperidin-1-yl)ethan-1-one]: the EC50 in assay [1], in assay [2] and in assay [3] was less than 200 nM throughout.
On to `CC(=O)N1C[C@H](c2nc(Nc3cc(C)nc(N4CCOCC4)c3)cc(-c3cnccn3)n2)CC[C@@H]1C` [Compound 00152, 1-((2S,5R)-2-methyl-5-(4-((2-methyl-6-morpholinopyridin-4-yl)amino)-6-(pyrazin-2-yl)pyrimidin-2-yl)piperidin-1-yl)ethan-1-one], for which the EC50 was less than 200 nM in assay [1], 200 to 1000 nM in assay [2] and less than 200 nM in assay [3].
Take `CC(=O)Nc1cc(F)cc(Nc2cc(-c3cncc4c3ccn4C)nc([C@@H]3CC[C@H](C)N(C(C)=O)C3)n2)c1` [Compound 00092, N-(3-((2-((3R,6S)-1-acetyl-6-methylpiperidin-3-yl)-6-(1-methyl-1H-pyrrolo[2,3-c]pyridin-4-yl)pyrimidin-4-yl)amino)-5-fluorophenyl)acetamide]: the EC50 in assay [1], in assay [2] and in assay [3] was less than 200 nM each time.
With `CC(=O)N1C[C@H](c2nc(Nc3ccccc3)cc(-c3cncnc3)n2)CC[C@@H]1C` (racemic) [Compound 00072, (+/−)-cis-1-(2-methyl-5-(6-(phenylamino)-[4,5′-bipyrimidin]-2-yl)piperidin-1-yl)ethan-1-one], the EC50 in assay [1], in assay [2] and in assay [3] was 200 to 1000 nM in each case.
As for `CC(=O)N1C[C@H](c2nc(Nc3ccnc(C)c3)cc(-c3cncc(C)c3)n2)CC[C@@H]1C` [Compound 00103, 1-((2S,5R)-2-methyl-5-(4-(5-methylpyridin-3-yl)-6-((2-methylpyridin-4-yl)amino)pyrimidin-2-yl)piperidin-1-yl)ethan-1-one], the EC50 in assay [1], in assay [2] and in assay [3] was less than 200 nM each time.
For the compound `CC(=O)N1C[C@H](c2nc(Nc3cc(F)cc(-c4cnn(C)c4)c3)cc(-c3cnccn3)n2)CC[C@@H]1C` [Compound 00066, 1-((2S,5R)-5-(4-((3-fluoro-5-(1-methyl-1H-pyrazol-4-yl)phenyl)amino)-6-(pyrazin-2-yl)pyrimidin-2-yl)-2-methylpiperidin-1-yl)ethan-1-one], the values for the EC50 in assay [1], in assay [2] and in assay [3] were less than 200 nM, less than 200 nM and 1000 to 10000 nM, respectively.
`CC(=O)N1C[C@H](c2nc(Nc3ccnc(F)c3)cc(-c3cccnc3)n2)CC[C@@H]1C` [Compound 00104, 1-((2S,5R)-5-(4-((2-fluoropyridin-4-yl)amino)-6-(pyridin-3-yl)pyrimidin-2-yl)-2-methylpiperidin-1-yl)ethan-1-one]: the EC50 in assay [1], in assay [2] and in assay [3] was less than 200 nM throughout.
For the compound `CNC(=O)c1cc(F)cc(Nc2cc(-c3cccnc3)nc([C@@H]3CC[C@H](C)N(C(C)=O)C3)n2)c1` [Compound 00041, 3-((2-((3R,6S)-1-acetyl-6-methylpiperidin-3-yl)-6-(pyridin-3-yl)pyrimidin-4-yl)amino)-5-fluoro-N-methylbenzamide], the EC50 in assay [1], in assay [2] and in assay [3] was less than 200 nM each time.
Take `CC(=O)N1C[C@H](c2nc(Nc3cccc(C(F)F)c3)cc(-c3cccnc3)n2)CC[C@@H]1C` [Compound 00039, 1-((2S,5R)-5-(4-((3-(difluoromethyl)phenyl)amino)-6-(pyridin-3-yl)pyrimidin-2-yl)-2-methylpiperidin-1-yl)ethan1-one]: the EC50 was less than 200 nM in assay [1], less than 200 nM in assay [2] and 200 to 1000 nM in assay [3].
With `CC(=O)N1C[C@H](c2nc(Nc3cccc(-c4cn(C)nn4)c3)cc(-c3cccnc3)n2)CC[C@@H]1C` [Compound 00053, 1-((2S,5R)-2-methyl-5-(4-((3-(1-methyl-1H-1,2,3-triazol-4-yl)phenyl)amino)-6-(pyridin-3-yl)pyrimidin-2-yl)piperidin-1-yl)ethan-1-one], the EC50 in assay [1] was less than 200 nM; in assay [2], less than 200 nM; in assay [3], 1000 to 10000 nM.
Turning to `CC(=O)N1C[C@H](c2nc(Nc3cc(C)nc(F)c3)cc(-c3cnccn3)n2)CC[C@@H]1C` [Compound 00149, 1-((2S,5R)-5-(4-((2-fluoro-6-methylpyridin-4-yl)amino)-6-(pyrazin-2-yl)pyrimidin-2-yl)-2-methylpiperidin-1-yl)ethan1-one], the EC50 in assay [1], in assay [2] and in assay [3] was less than 200 nM throughout.
Turning to `CC(=O)N1C[C@H](c2nc(Nc3ccnc(F)c3)cc(-c3cnccn3)n2)CC[C@@H]1C` [Compound 00128, 1-((2S,5R)-5-(4-((2-fluoropyridin-4-yl)amino)-6-(pyrazin-2-yl)pyrimidin-2-yl)-2-methylpiperidin-1-yl)ethan-1-one], the EC50 in assay [1], in assay [2] and in assay [3] was less than 200 nM each time.
For `CC(=O)N1C[C@H](c2nc(Nc3ccccc3)cc(-c3cncc4[nH]ccc34)n2)CC[C@@H]1C` (racemic) [Compound 00073, (+/−)-c/s-1-(2-methyl-5-(4-(phenylamino)-6-(1H-pyrrolo[2,3-c]pyridin-4-yl)pyrimidin-2-yl)piperidin-1-yl)ethan-1-one], the EC50 in assay [1], in assay [2] and in assay [3] was less than 200 nM in each case.
Regarding `CC(=O)N1C[C@H](c2nc(Nc3cncc(C)c3)cc(-c3cccnc3)n2)CC[C@@H]1C` [Compound 00009], the EC50 in assay [1] was less than 200 nM; in assay [2], 200 to 1000 nM; in assay [3], less than 200 nM.
Regarding `CC(=O)N1C[C@H](c2nc(Nc3cccc(-c4cnn(C)c4)c3)cc(-c3cnccn3)n2)CC[C@@H]1C` [Compound 00065, 1-((2S,5R)-2-methyl-5-(4-((3-(1-methyl-1H-pyrazol-4-yl)phenyl)amino)-6-(pyrazin-2-yl)pyrimidin-2-yl)piperidin-1-yl)ethan-1-one], the EC50 in assay [1], in assay [2] and in assay [3] was less than 200 nM each time.
